From article PMC6278306, “Anti-Leishmanial and Cytotoxic Activities of a Series of Maleimides: Synthesis, Biological Evaluation and Structure-Activity Relationship” (Molecules, 2018)
In brackets after ≈: the same amount, converted by molar mass.

Assays:
[1] = Cytotoxicity assay (Alamar Blue); assay type: cell-based; conditions: human, concentrations 10–0.0032 μg/mL
Description: In order to verify the safety of maleimides, they were tested for cytotoxicity against human monocytic leukemia cells (THP1) 50% cytotoxic concentration values represent the concentration of compound required to kill 50% of the THP1 cells were calculated (CC50). The selectivity indices were calculated using the formula SI = CC50 /IC50, against promastigotes. […] SIs of 16 and 42 were greater than 781.3.
(§1) In vitro anti-leishmanial assay. The antileishmanial activity of the compounds was tested in vitro against a culture of L. donovani promastigotes. The promastigotes were grown in RPMI 1640 medium supplemented with 10% fetal calf serum (Gibco Chem. Co., 81 Wyman Street, Waltham, MA, USA) at 26 °C. A three day old culture was diluted to 5 × 10^5 promastigotes/mL. Drug dilutions were prepared directly in cell suspension in 96-well plates. Plates were incubated at 26 °C for 48 h and the growth of Leishmania promastigotes was determined by the Alamar blue assay as described earlier. Standard fluorescence was measured on a Fluostar Galaxy plate reader (BMG Lab Technologies, Offenburg, Germany) at an excitation wavelength of 544 nm and an emission wavelength of 590 nm. Pentamidine and amphotericin B were used as the standard anti-leishmanial agents. IC50 values were computed from dose-response curves as above. The tested compounds were diluted with six concentrations (from 40–0.0128 μg/mL). Cytotoxicity assay. The in vitro cytotoxicity was determined against human monocytic leukemia cells (THP1) with a simple colorimetric method using the dye Alamar Blue. […] Cells were grown to a density between 0.2 and 1 × 10^6 cells/mL. Culture medium was replaced every 2–3 days with fresh growth medium. DMSO was used as the solvent, and the test compounds was with six concentrations from 10–0.0032 μg/mL.
The in vitro cytotoxicity was determined against human monocytic leukemia cells (THP1) with a simple colorimetric method using the dye Alamar Blue, which was reported in the reference (Mikus, J.; Steverding, D. A simple colorimetric method to screen drug cytotoxicity against Leishmania, using the dye Alamar Blue. Parasitol Int. 2000, 48(3),265-269.). THP1 suspensions were grown in RPMI-1640 medium supplemented with 10% FBS, 2 mM glutamine, 50 μg/mL […]
were grown to a density between 0.2 and 1×10^6 cells/mL. Culture medium was replaced every 2-3 days with fresh growth medium. DMSO was used as the solvent, and the test compounds was with six concentrations from 10-0.0032μg/mL.

[2] = test system: L. donovani promastigotes; assay: In vitro anti-leishmanial assay (Alamar blue, promastigotes); assay type: cell-based, Leishmania donovani; conditions: for IC50: Leishmania donovani, 48 h, read-out: L. donvani IC50; for SI: SI = CC50 /IC50, THP1 vs promastigotes
Description: Anti-leishmanial activity in vitro was described in terms of IC50, which is the effective concentration (μg/mL) required to achieve 50% growth inhibition, with promastigotes in their exponential growth phase.
as §1, with “Pentamidine and amphotericin B were used as the standard anti-leishmanial agents.” left out

β-(1,3)-glucan synthase = test system: β-(1,3)-glucan synthase; set-up: method as in PMID 21612375; conditions: cited from earlier work
[3] = THP1 cells (human monocytic leukemia)

CC1=CC(=O)N(Cc2ccccc2)C1=O [Compound 21]
CC50 [1, 3]: 7.94 µg/mL (≈ 39.5 µM)
IC50 [2]: 0.58 µg/mL (≈ 2.88 µM)
SI [2]: 13.7

Cc1c(Cl)cccc1N1C(=O)C(Cl)=C(Cl)C1=O [Compound 40]
CC50 ([1]; THP1 cells): > 10 µg/mL
melting point: 162.3 to 164.1 °C
IC50 [2]: 0.13 µg/mL (≈ 0.447 µM)
SI [2]: >76.9

O=C1C=CC(=O)N1C1CCCCC1 [Compound 17]
CC50 [1, 3]: > 10 µg/mL
IC50 [2]: 0.26 µg/mL (≈ 1.45 µM)
SI [2]: >38.5

CC1=CC(=O)N(c2c(C)cccc2C)C1=O [Compound 23]
CC50 [1, 3]: > 10 µg/mL
melting point: 190.8 to 192 °C
IC50 [2]: 13.2 µg/mL (≈ 61.2 µM)
SI [2]: >0.8

CCCCCCCCN1C(=O)C=CC1=O [Compound 4]
CC50 [1, 3]: > 10 µg/mL
IC50 [2]: 0.27 µg/mL (≈ 1.29 µM)
SI [2]: >37.0

O=C1C=CC(=O)N1CCc1ccccc1 [Compound 7]
CC50 [1, 3]: 4.13 µg/mL (≈ 20.5 µM)
IC50 [2]: 0.1 µg/mL (≈ 0.497 µM)
SI [2]: 41.3

CC1=CC(=O)N(C2CCCCC2)C1=O [Compound 27]
CC50 [1, 3]: 7.15 µg/mL (≈ 37 µM)
melting point: 65.6 to 66.5 °C
IC50 [2]: 0.89 µg/mL (≈ 4.61 µM)
SI [2]: 8.0

CCCCCCN1C(=O)C=C(C)C1=O [Compound 19]
CC50 [1, 3]: 5.89 µg/mL (≈ 30.2 µM)
IC50 [2]: 0.81 µg/mL (≈ 4.15 µM)
SI [2]: 7.3

Cc1c(N2C(=O)C(Cl)=C(Cl)C2=O)cccc1[N+](=O)[O-] [Compound 42]
CC50 [1, 3]: > 10 µg/mL
melting point: 168.8 to 169.9 °C
anti-leishmanial activity, times better than amphotericin B ([2]; L. donovani, relative to amphotericin B): 10
IC50 [2]: < 0.0128 µg/mL

O=C1C=CC(=O)N1c1ccc(Cl)cc1 [Compound 12]
CC50 [1, 3]: > 10 µg/mL
IC50 [2]: 1.02 µg/mL (≈ 4.91 µM)
SI [2]: >9.8

O=C1C=CC(=O)N1Cc1ccccc1 [Compound 6]
CC50 [1, 3]: 4.56 µg/mL (≈ 24.4 µM)
IC50 [2]: 0.08 µg/mL (≈ 0.427 µM)
SI [2]: 57.0

CCCCN1C(=O)C=CC1=O [Compound 1]
CC50 [1, 3]: > 10 µg/mL
IC50 [2]: 0.08 µg/mL (≈ 0.522 µM)
SI [2]: >125.0

Cc1ccc(N2C(=O)C(Cl)=C(Cl)C2=O)cc1 [Compound 35]
CC50 ([1]; THP1 cells): > 10 µg/mL
IC50 [2]: 0.66 µg/mL (≈ 2.58 µM)
SI [2]: >15.2

O=C1C(Cl)=C(Cl)C(=O)N1C1CCCCC1 [Compound 45]
CC50 ([1]; THP1 cells): > 10 µg/mL
melting point: 67.2 to 68.5 °C
IC50 [2]: 0.26 µg/mL (≈ 1.05 µM)
SI [2]: >38.5

O=C1C=CC(=O)N1c1ccccc1 [Compound 9]
CC50 [1, 3]: > 10 µg/mL
IC50 [2]: 0.24 µg/mL (≈ 1.39 µM)
SI [2]: >41.7

CCc1cccc(CC)c1N1C(=O)C=CC1=O [Compound 14]
CC50 [1, 3]: 3.89 µg/mL (≈ 17 µM)
melting point: 192.8 to 194.1 °C
IC50 [2]: 0.08 µg/mL (≈ 0.349 µM)
SI [2]: 48.6

CC(C)(C)N1C(=O)C=CC1=O [N-tert-butyl-maleimide]
IC50 β-(1,3)-glucan synthase (β-(1,3)-glucan synthase): 13.7 ± 2.3 µg/mL (≈ 89.4 µM)

Cc1ccc(Cl)cc1N1C(=O)C(Cl)=C(Cl)C1=O [Compound 41]
CC50 ([1]; THP1 cells): > 10 µg/mL
melting point: 160.1 to 161.4 °C
IC50 [2]: 0.11 µg/mL (≈ 0.379 µM)
SI [2]: >90.9

O=C1C=CC(=O)N1CCCc1ccccc1 [Compound 8]
CC50 [1, 3]: 8.25 µg/mL (≈ 38.3 µM)
IC50 [2]: 0.11 µg/mL (≈ 0.511 µM)
SI [2]: 75.0

O=C1C(Cl)=C(Cl)C(=O)N1c1ccc(Cl)cc1 [Compound 37]
CC50 ([1]; THP1 cells): > 10 µg/mL
IC50 [2]: 0.59 µg/mL (≈ 2.13 µM)
SI [2]: >16.9

CCc1cccc(CC)c1N1C(=O)C(Cl)=C(Cl)C1=O [Compound 39]
CC50 ([1]; THP1 cells): > 10 µg/mL
melting point: 204.1 to 205.8 °C
IC50 [2]: 0.13 µg/mL (≈ 0.436 µM)
SI [2]: >76.9

CCN1C(=O)C=CC1=O [N-ethyl-maleimide]
IC50 β-(1,3)-glucan synthase (β-(1,3)-glucan synthase): 8.5 ± 1.1 µg/mL (≈ 67.9 µM)

CC(C)CN1C(=O)C(Cl)=C(Cl)C1=O [Compound 44]
CC50 [1, 3]: > 10 µg/mL
melting point: 63.8 to 64.5 °C
IC50 [2]: 0.43 µg/mL (≈ 1.94 µM)
SI [2]: >23.3

O=C1C(Cl)=C(Cl)C(=O)N1c1ccc(F)cc1 [Compound 36]
CC50 [1, 3]: > 10 µg/mL
IC50 [2]: 0.36 µg/mL (≈ 1.38 µM)
SI [2]: >27.8
